Measurements published in patent US10925875B2 (National Jewish Health, priority 2018, dated 2021).

Columns and labels:
Assay type in all cases: cell-based, human
[1] = tested on: intracellular IL5 expression in ILCs; test: Intracellular IL5 by FCM in isolated Lin− blood cells; conditions: Dex 10^-7 M, 5 days
Procedure: (§1) FIGS. 2C and 2D show lineage-negative (Lin−) cells (0.4×10^6 per culture) from peripheral blood obtained from 3 allergic rhinitis (non-asthmatic) patients were cultured with IL2/IL33 or IL2/TSLP with and without Dex (10^-7 M) for 5 days. Cell-free supernatant was analyzed for IL5 by ELISA. Cells were analyzed by FCM for intracellular IL5. P value for data on panel C was calculated by paired t test due to low N. Interleukin-2 (IL-2); interleukin-33 (IL-33).
(§2) The direct effect of Dex on isolated lineage− negative (Lin−) cells (representing ILCs) from the peripheral blood was examined. The effect of Dex was measured by two approaches: measurement of secreted IL5 by ELISA and measurement of the expression of intracellular IL5 by FCM. Dex inhibited IL5 secretion by IL2/IL33-stimulated ILCs by nearly 79% (FIG. 2C). In contrast, it inhibited IL5 secretion by IL2/TSLP-stimulated ILCs by only 25%. […] Dex inhibited intracellular IL5 expression in IL2/IL33- and IL2/TSLP-stimulated ILCs by 65% and 18%, respectively (FIG. 2D).

MEK1/2 in ILC2s = test: Cytokine-induced MEK1/2 in ILC2s by FCM; conditions: PBMCs, IL2 plus TSLP with and without Dex, 5 days, lin−CRTH2+ cells
Procedure: FIGS. 4A and 4B show the effect of Dex on cytokine-induced MEK1 (MEK) induction. PBMCs from an asthmatic patient were cultured with medium or IL2 plus one of the two epithelial ILC-inducing cytokines—IL33 and TSLP with and without Dex for 5 days. The expression of MEK on gated live lin−CRTH2+ cells was analyzed by FCM.
Heightened MEK1/2 mediates steroid resistance of lymphocytes. The effect of IL33 and TSLP on MEK1/2 induction and the effect of Dex was examined.

BAL IL5+ ILC2s = test: Steroid response of BAL IL5+ ILC2s by flow cytometry; conditions: BAL cells, MS 100 μM with and without Dex 10^−7M, 3 days
Procedure: FIGS. 1A and 1B show the effect of dexamethasone (Dex) on blood (A) and bronchoalveolar lavage (BAL) (B) Type 2 innate lymphoid cells (ILC2s). Peripheral blood mononuclear cells (PBMC) and BAL cells from an asthmatic patient were cultured with vehicle (V, ethanol)) or dexamethasone (Dex 10^−7M), a synthetic steroid, for 3 days. The frequency of lin−CRTH2+IL7Rα+IL5+ cells (considered as markers of ILC2s) was measured by flow cytometry (FCM) and analyzed by FlowJo. Frequency of dead cells (measured by e-Fluor 780, e-Bioscience) was less than 10% and excluded from the gating. The difference in dead cells between V and Dex was less than 10%). Prostaglandin D2 receptor 2 (CRTH2); interleukin-7 receptor alpha (IL7Rα); interleukin-5 (IL-5). […]
BAL cells were cultured with MS (100 μM) with and without Dex (10^−7M) for 3 days. IL5 expression by lin−CRTH2+IL7Rα+ ILC2s was measured by FCM (N=8, *: P=0.0006 by Kruskal Walis test).
(§3) Steroid response of ILC2s from the bronchoalveolar lavage (BAL, obtained during bronchoscopy) and blood obtained from asthmatic patients was studied. […] Interluekin-5 (IL5)-expressing ILC2s were examined by flow cytometry and analyzed by FlowJo. […] Frequency of dead cells (measured by e-Fluor 780, e-Bioscience) was less than 10% and excluded from the gating. […]

IL5 secretion by ILCs = test: Secreted IL5 by ELISA from isolated Lin− blood cells; conditions: Dex 10^-7 M, 5 days
Procedure: as §1, §2

[2] = tested on: IL5+ ILC2s from the blood; test: Steroid response of blood IL5+ ILC2s by flow cytometry; conditions: MNC and BAL cells, Dex 10^−7M, 3 days, e-Fluor 780
Procedure: FIGS. 1A and 1B show the effect of dexamethasone (Dex) on blood (A) and bronchoalveolar lavage (BAL) (B) Type 2 innate lymphoid cells (ILC2s). Peripheral blood mononuclear cells (PBMC) and BAL cells from an asthmatic patient were cultured with vehicle (V, ethanol)) or dexamethasone (Dex 10^−7M), a synthetic steroid, for 3 days. The frequency of lin−CRTH2+IL7Rα+IL5+ cells (considered as markers of ILC2s) was measured by flow cytometry (FCM) and analyzed by FlowJo. Frequency of dead cells (measured by e-Fluor 780, e-Bioscience) was less than 10% and excluded from the gating. The difference in dead cells between V and Dex was less than 10%). Prostaglandin D2 receptor 2 (CRTH2); interleukin-7 receptor alpha (IL7Rα); interleukin-5 (IL-5).
FIGS. 1C and 1D show the cumulative data on the effect of dexamethasone (Dex) on blood (FIG. 1C) and BAL (FIG. 1D) lin−CRTH2+IL7Rα+IL5+ cells from 14 allergic asthmatic patients.
as §3, with “studied. Blood was processed to isolate mononuclear cells (MNC). BAL cells were studied without further processing.” for “studied.”

Structure (SMILES): C[C@@H]1C[C@H]2[C@@H]3CCC4=CC(=O)C=C[C@]4(C)[C@@]3(F)[C@@H](O)C[C@]2(C)[C@@]1(O)C(=O)CO [Dex, dexamethasone]
- inhibition of intracellular IL5 expression ([1]; IL2/IL33-stimulated ILCs): 65%
- inhibition of intracellular IL5 expression ([1]; IL2/TSLP-stimulated ILCs): 18%
- TSLP-induced MEK1/2 (MEK1/2 in ILC2s): failed to inhibit
- inhibition of BAL IL5+ ILC2s (BAL IL5+ ILC2s): failed to inhibit
- inhibition of IL5 secretion (IL5 secretion by ILCs; IL2/IL33-stimulated ILCs): ~79%
- inhibition of IL5 secretion (IL5 secretion by ILCs; IL2/TSLP-stimulated ILCs): 25%
- difference in dead cells between V and Dex [2]: less than 10%
